The values that follow are results of earlier work, collected in patent publication US6710071B2, “Difluoromethylene aromatic ethers as inhibitors of glycine transport” (Pfizer Inc, priority 2001, dated 2004).

In this series the test system is NMDA receptor. The following applies: effect blocked by a specific NMDA-site antagonist and a glycine-site antagonist.

SMILES strings stand for the structures.

On to `CN(CCC(Oc1ccc(-c2ccccc2)cc1)c1ccc(F)cc1)CC(=O)O` (stereo not shown) [NFPS], for which the “post synaptic current driven by the NMDA receptor” value is “increased”.
